Measured values from patent publication US20010018095A1, “Method of forming a membrant, especially a latex or polymer membrane, including multiple discrete layers” (priority 1987, published 2001).

Assays:
[1] = candidate solvents for polyurethane and biocide; cited from earlier work
[2] = system: latex-allergic or sensitive users; assay: Gentian violet admixed with liquid latex: allergic reactions in users; conditions: gentian violet admixed with liquid latex prior to membrane formation; 1.5% by weight solution preferred
Excerpt: According to one aspect of the invention, gentian violet is admixed with liquid latex prior to membrane formation by dipping or spraying techniques. A wide variety of different concentrations may be used, but a 1.5% by weight solution of gentian violet is preferred. […] Other proteing binding biocides may be employed in place of or in combination with gentian violet.

SMILES	Hydrogen Bonding [1]	allergic reactions in latex-allergic or sensitive users [2]
CCC(=O)CC [Diethyl ketone]	medium	
CC(=O)N(C)C [Dimethyl acetamide (DMF), Dimethyl acetamide]	medium	
C[S+](C)[O-] [Dimethyl sulfoxide (DMS), Dimethyl sulfoxide]	medium	
CCOCCO [Ethylene glycol monoethyl ether]	medium	
CCC(C)=O [Methyl ethyl ketone]	medium	
C1CCOC1 [Tetrahydrofuran (THF), Tetrahydrofuran]	medium	
CN(C)c1ccc(C(=C2C=CC(=[N+](C)C)C=C2)c2ccc(N(C)C)cc2)cc1 [gentian violet]		minimize allergic reactions
Cc1cccc(O)c1 [m-Cresol]	strong	
